pIC50: −log10 of the molar value.
How the values were obtained:
[1] = tested on: verapamil binding site of the L-type calcium channel; test: Inhibition of [3H]D888 binding to the verapamil binding site of the L-type calcium channel (rat cerebral cortex membranes); conditions: 10 μmol/l of test substance
Protocol: 200-250 g male Sprague-Dawley rats are sacrificed by decapitation. Cerebral cortices are quickly dissected on ice and homogenized in a 20 mmol/l Tris-HCl (pH 7.4) buffer containing 250 mmol/l sucrose (buffer A). The homogenate is centrifuged at 30,000 g for 15 min at 4° C. The resulting crude membrane pellet is resuspended in a 50 mmol/l Tris-HCl (pH 7.4) buffer and incubated 15 min at 37° C. before being centrifuged at 30,000×g for 15 min at 4° C. After two more washes under the same conditions, the final pellet is resuspended in buffer A at a protein concentration ranging from 15 to 25 mg/ml and stored in liquid nitrogen.
Binding experiments are essentially performed according to Reynolds J. et al., J. Pharmacol. Exp. Ther. (1986), 237, 731-738. (1986) with slight modifications.
Membranes (120-175 μg/assay) are incubated at 25° C. for 60 min in 0.5 ml of a 50 mmol/l Tris-HCl buffer (pH 7.4) containing 2 mmol/l MgCl2, 0.2 to 0.4×10-9 mol/l of [^3H]D888 (85 Ci/mmol; Amersham, Belgium) and 10 μmol/l of the test substance. The non specific binding (NSB) is defined as the residual binding observed in the presence 10 μM verapamil. Membrane-bound and -free radioligands are separated by rapid filtration through glass fiber filters (equivalent to Whatman GF/C or GF/B; VEL, Belgium) presoaked in 0.1% polyethyleneimine to reduce non specific binding. Samples and filters are rinsed by at least 6 ml of 50 mmol/l Tris-HCl (pH 7.4) buffer. […] The radioactivity trapped onto the filters is counted by liquid scintillation in a β-counter.
The inhibition of the radioligand specific binding is calculated as follows: [formula] • where BI and Bo represent the binding observed in the presence and absence of the test substance respectively; and • BNS is the non specific binding.
Data analysis is performed by a computerized non linear curve fitting method using a set of equations describing several binding models assuming competitive interactions between ligands (Weiland G. A. and P. B. Molinoff Life Science (1981), 29, 313-330; Molinoff P. et al. (1981) Life Sci., 29, 427-443).

[2] = tested on: isolated rat aorta contracted by 100 mM KCl; test: Effect of compound on isolated rat aorta contracted by 100 mM KCl; conditions: 10^−5 M; contraction by 100 mM KCl
Protocol: Rat thoracic aorta depolarized by 100 mM KCl develops a contraction induced by an influx of Ca^2+ into the smooth muscle cell. An inhibition of this contraction could predict a Ca^2+ antagonist activity.
The method was adapted from Polster P. et al., J. Pharmacol. Exp. Ther. (1990), 255, 593: rings of thoracic aorta were prepared from male Wistar rats (250-400 g) and mounted under an optimal resting tension of 2 g in 10 ml organ baths containing modified Krebs' solution (NaCl 112 mM, NaHCO3 25 mM, KCl 5 mM, MgSO4 1.2 mM, CaCl2 2.5 mM, KH2PO4 1 mM and glucose 11.5 mM, pH 7.4). The bathing solution was maintained at a temperature of 37° C. and gassed with 95% O2 and 5% CO2. Isometric contractions were measured with a force transducer connected to an amplifier. A computer system was used to control data acquisition and fluid circulation through electrovalves. Drugs were manually injected into the bath.
Each ring was allowed to equilibrate for 60 min in the modified Krebs' solution. […] After obtaining two reproducible control contractions, a 3rd contraction was induced and the test compound was added to the bathing medium for 2 hours. Only preparation in which the contractions were matched were used. Each tissue received only one concentration of the test compound. Appropriate control experiments were conducted in order to test the effect of the solvant.
To normalize data, the change in tension due to the drug was compared to the change of tension due to the solvant and expressed as percentage of the induced relaxation of the initial contraction. Raw data were processed by a computer system and the pD′2 value was calculated following the method of Van Rossum J. M. et al., Arch. Int. Pharmacodyn. Ther. (1963), 143, 299.

NK1 receptors = NK1 receptors (Homo sapiens, UniProt P25103); test: Binding of [4,5-3H-Leu10] substance P to human recombinant NK1 receptors expressed in CHO cell membranes; set-up: host or cells: CHO cells; conditions: pIC50 = -log IC50, concentration inhibiting by 50% the specific binding of [4,5-3H] substance P; tested as the free base/salt given in c1
Sequence of NK1 receptors (P25103 whole entry): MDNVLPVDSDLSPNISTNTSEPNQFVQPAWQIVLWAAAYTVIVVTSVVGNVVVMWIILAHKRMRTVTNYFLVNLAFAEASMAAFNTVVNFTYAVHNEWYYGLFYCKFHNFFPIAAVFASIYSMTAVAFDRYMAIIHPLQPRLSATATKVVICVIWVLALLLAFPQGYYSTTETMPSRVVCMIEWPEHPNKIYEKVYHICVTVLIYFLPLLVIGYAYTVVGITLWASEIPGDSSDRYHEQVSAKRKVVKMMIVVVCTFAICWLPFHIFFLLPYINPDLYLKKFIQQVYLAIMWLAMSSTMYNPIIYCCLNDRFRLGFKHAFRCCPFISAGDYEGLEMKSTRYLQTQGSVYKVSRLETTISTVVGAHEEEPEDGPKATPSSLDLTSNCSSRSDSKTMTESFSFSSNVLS
Protocol: The following test was designed to assess the affinity of test substances for human recombinant NK1 receptors expressed in Chinese Hamster Ovarian (CHO) cells.
CHO cells expressing the human recombinant NK1 receptor are used. The cells were obtained from Euroscreen (Brussels, Belgium).
Cells expressing the human NK1 receptor are routinely cultured in 175 cm2 flasks containing 75 ml of medium F12 (Ham) enriched with 2 mmol/l L-glutamine, 100 IU/ml penicilline, 100 μg/ml streptomycine, 1% sodium pyruvate, 2.5 μg/ml fungizone amphotericin B, 400 μg/ml geneticin and supplemented with 10% foetal calf serum. […] When subcultured, the cells are seeded at a concentration of 50,000 cells/cm2.
Confluent cells are gently scraped and resuspended in 25 ml of phosphate buffered saline without calcium and magnesium. The cellular suspension is centrifuged at 1500×g for 3 min (4° C.). The cell pellet is homogenized in a 15 mmol/l Tris-HCl (pH 7.5) buffer, 2 mmol/l MgCl2, 0.3 mmol/l EDTA, 1 mmol/l EGTA. The crude membrane fraction is collected by two consecutive centrifugation steps at 40,000×g for 25 min (4° C.). The final pellet is resuspended in 20 mmol/l Tris-HCl (pH 7.4), 250 mmol/l sucrose buffer at a protein concentration ranging from 2 to 6 mg/ml and stored in liquid nitrogen. • 1.2.2. Test Design
The inhibition constant (Ki) is determined using increasing concentrations of the test substance. The concentration range usually encompasses 6 log units with variable steps (0.3 to 1 log). Assays are performed in mono- or duplicate.
Membranes are incubated at 25° C. for 60 min in 0.5 ml of a 50 mmol/l Tris-HCl buffer (pH 7.4) containing 2 mmol/l MgCl2, 100 μg/ml bacitracine, 0.1 to 0.4×10^−9 mol/l of [4,5^3H-Leu^10] substance P (specific activity>100 Ci/mmol) and increasing concentrations of the test substance. […] Membrane-bound and free radioligands are separated by rapid filtration through glass fiber filters (equivalent to Whatman GF/C or GF/B; VEL, Belgium) presoaked in 0.1% polyethyleneimine to reduce non specific binding. Samples and filters are rinsed by at least 6 ml of 50 mmol/l Tris-HCl (pH 7.4) buffer.
Initial values for the different variables may be provided by the experimenter.

Structure (SMILES)	% inhibition of [3H]D888 binding to the verapamil binding site of the L-type calcium channel [1]	Result: effect of compound on isolated rat aorta contracted by 100 mM KCl [2]	pIC50 (NK1 receptors)
O=C(O)COCCN1CCN([C@H](COCc2cc(C(F)(F)F)cc(C(F)(F)F)c2)c2ccccc2)CC1 [Compound 236]	0 (0: inhibition < 20%)	inactive à 10^−5 M	7.10
O=C(O)CN1CCN([C@H](COCc2cc(C(F)(F)F)cc(C(F)(F)F)c2)c2ccccc2)CC1 [Compound 230]	0 (0: inhibition < 20%)	inactive à 10^−5 M	7.30
CC(OCC(c1ccccc1)N1CCN(CCCCc2nnn[nH]2)CC1)c1cc(C(F)(F)F)cc(C(F)(F)F)c1 (centres unmarked) [Compound 302]	+ (+: inhibition comprised between 20 and 50%)	–	8.40
C[C@@H](OC[C@@H](c1ccccc1)N1CCN(CCOCC(=O)O)CC1)c1cc(C(F)(F)F)cc(C(F)(F)F)c1 [Compound 281]	+ (+: inhibition comprised between 20 and 50%)	inactive à 10^−5 M	–
CS(=O)(=O)NC(=O)COCCN1CCN(C(COCc2cc(C(F)(F)F)cc(C(F)(F)F)c2)c2ccccc2)CC1 (centres unmarked) [Compound 305, N-[(2-{4-[2-(3,5-Bis-trifluoromethyl-benzyloxy)-1-phenyl-ethyl]-piperazin-1-yl}-ethoxy)-acetyl]-methanesulfonamide]	0 (0: inhibition < 20%)	–	7.10
O=C(O)C1CCC(N2CCN(C(COCc3cc(C(F)(F)F)cc(C(F)(F)F)c3)c3ccccc3)CC2)CC1 (stereo not drawn) [Compound 313, cis- or trans-4-{4-[2-(3,5-Bis-trifluoromethyl-benzyloxy)-1-phenyl-ethyl]-piperazin-1-yl}-cyclohexanecarboxylic acid]	0 (0: inhibition < 20%)	–	7.80
O=C(O)c1ccccc1CN1CCN(C(COCc2cc(C(F)(F)F)cc(C(F)(F)F)c2)c2ccccc2)CC1 (racemic) [Compound 241]	+ (+: inhibition comprised between 20 and 50%)	–	8.10
Cc1ccc(S(=O)(=O)NC(=O)OCCN2CCN(C(COCc3cc(C(F)(F)F)cc(C(F)(F)F)c3)c3ccccc3)CC2)cc1 (centres unmarked) [Compound 307, N-p-toluenesulfonic-carbamic acid 2-{4-[2-(3,5-bis-trifluoromethyl-benzyloxy)-1-phenyl-ethyl]-piperazin-1-yl}-ethyl ester]	+ (+: inhibition comprised between 20 and 50%)	–	7.80
CC(OCC(c1ccccc1)N1CCN(CC(=O)O)CC1)c1cc(C(F)(F)F)cc(C(F)(F)F)c1 (single isomer, unassigned) [Compound 274]	0 (0: inhibition < 20%)	–	7.90
N#CCN1CCN([C@H](COCc2cc(C(F)(F)F)cc(C(F)(F)F)c2)c2ccccc2)CC1 [Compound 291, (S)-{4-[2-(3,5-Bis-trifluoromethyl-benzyloxy)-1-phenyl-ethyl]-piperazin-1-yl}-acetonitrile]	0 (0: inhibition < 20%)	–	7.60
C[C@@H](OC[C@@H](c1ccccc1)N1CCN(CC(=O)O)CC1)c1cc(C(F)(F)F)cc(C(F)(F)F)c1 [Compound 277]	0 (0: inhibition < 20%)	–	8.00
O=C(O)CCCCCN1CCN(C(COCc2cc(C(F)(F)F)cc(C(F)(F)F)c2)c2ccccc2)CC1 (racemic) [Compound 234, 6-{4-[2-(3,5-Bis-trifluoromethyl-benzyloxy)-1-phenyl-ethyl]-piperazin-1-yl}-hexanoic acid]	0 (0: inhibition < 20%)	–	7.80
O=C(O)CN1CCN([C@@H](COCc2cc(C(F)(F)F)cc(C(F)(F)F)c2)c2ccccc2)CC1 [Compound 231]	0 (0: inhibition < 20%)	–	7.10
O=C(O)C(c1ccccc1)N1CCN([C@H](COCc2cc(C(F)(F)F)cc(C(F)(F)F)c2)c2ccccc2)CC1 (mixture of isomers) [Compound 244]	−+ (+: inhibition comprised between 20 and 50%)	–	7.40
CNC(=O)CN1CCN(C(COCc2cc(C(F)(F)F)cc(C(F)(F)F)c2)c2ccccc2)CC1 (racemic) [Compound 292, 2-{4-[2-(3,5-Bis-trifluoromethyl-benzyloxy)-1-phenyl-ethyl]-piperazin-1-yl}-N-methyl-acetamide]	+ (+: inhibition comprised between 20 and 50%)	–	7.80
O=C(O)COCCN1CCN([C@@H](COCc2cc(C(F)(F)F)cc(C(F)(F)F)c2)c2ccccc2)CC1 [Compound 237]	0 (0: inhibition < 20%)	inactive à 10^−5 M	–
O=C(COCCN1CCN(C(COCc2cc(C(F)(F)F)cc(C(F)(F)F)c2)c2ccccc2)CC1)NS(=O)(=O)c1ccccc1 (centres unmarked) [Compound 306, N-[(2-{4-[2-(3,5-Bis-trifluoromethyl-benzyloxy)-1-phenyl-ethyl]-piperazin-1-yl}-ethoxy)-acetyl]-benzenesulfonamide]	+ (+: inhibition comprised between 20 and 50%)	–	7.50
O=C(O)CN1CCN(C(COCc2cc(C(F)(F)F)cc(C(F)(F)F)c2)c2ccc(Br)cc2)CC1 (racemic) [Compound 250]	+ (+: inhibition comprised between 20 and 50%)	–	7.10

— patent US6916797B2, “α-arylethylpiperazine derivatives as neurokinin antagonists” (UCB, S.A., priority 2000, dated 2005)
